Molecular target: T1, HDAC6 enzyme (Homo sapiens, UniProt Q9UBN7)
T1 construct: transducing full length HDAC6 gene into Sf-9 insect cells; GST; purchased SignalChem; host or cells: Sf-9 insect cells
T1 sequence (Q9UBN7 1-1215): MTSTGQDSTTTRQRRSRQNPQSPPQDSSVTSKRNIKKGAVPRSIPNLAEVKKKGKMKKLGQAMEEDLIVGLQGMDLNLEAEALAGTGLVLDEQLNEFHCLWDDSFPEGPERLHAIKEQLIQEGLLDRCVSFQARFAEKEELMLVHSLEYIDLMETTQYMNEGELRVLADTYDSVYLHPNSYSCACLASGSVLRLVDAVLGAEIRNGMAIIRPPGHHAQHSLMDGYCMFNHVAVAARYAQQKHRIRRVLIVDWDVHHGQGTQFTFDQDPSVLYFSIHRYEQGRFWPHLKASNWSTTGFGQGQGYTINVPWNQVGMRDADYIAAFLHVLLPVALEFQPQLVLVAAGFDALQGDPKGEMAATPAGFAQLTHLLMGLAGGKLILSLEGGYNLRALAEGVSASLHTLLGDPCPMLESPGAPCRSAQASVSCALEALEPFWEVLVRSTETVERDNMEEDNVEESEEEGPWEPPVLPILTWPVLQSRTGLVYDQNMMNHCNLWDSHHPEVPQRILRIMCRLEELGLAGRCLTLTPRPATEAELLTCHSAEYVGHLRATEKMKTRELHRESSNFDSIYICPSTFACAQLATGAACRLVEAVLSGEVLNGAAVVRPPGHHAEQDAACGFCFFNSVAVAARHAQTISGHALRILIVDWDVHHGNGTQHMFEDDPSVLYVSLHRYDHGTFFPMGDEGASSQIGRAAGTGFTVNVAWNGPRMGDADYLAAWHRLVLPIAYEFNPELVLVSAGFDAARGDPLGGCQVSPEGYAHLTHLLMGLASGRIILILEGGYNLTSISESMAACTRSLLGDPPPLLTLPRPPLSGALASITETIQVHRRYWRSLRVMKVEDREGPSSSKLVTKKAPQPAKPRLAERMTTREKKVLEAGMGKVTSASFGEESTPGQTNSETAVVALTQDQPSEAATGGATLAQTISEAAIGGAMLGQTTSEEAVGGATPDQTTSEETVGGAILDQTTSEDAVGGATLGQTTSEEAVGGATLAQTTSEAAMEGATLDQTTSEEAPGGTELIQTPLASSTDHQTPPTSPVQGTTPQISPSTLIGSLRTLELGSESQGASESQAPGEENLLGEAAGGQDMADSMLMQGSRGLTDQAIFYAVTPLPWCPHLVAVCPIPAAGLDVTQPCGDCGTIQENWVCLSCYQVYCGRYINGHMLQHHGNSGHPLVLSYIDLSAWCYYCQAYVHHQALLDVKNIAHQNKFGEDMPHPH
Assay: HDAC6 enzyme inhibitory activity (HDAC-Glo I/II Assay kit)
Type: biochemical
Conditions: 10 μM; wells without enzyme = 100% inhibition; read-out: HDAC6 inhibitory rate (%) (10 μM)
In short: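 Full-length human HDAC6 (GST-purified, Sf-9 expressed) preincubated with compound 60 min at room temperature in Tris-HCl pH 7.5 buffer with MgCl2, KCl, NaCl, glutathione, Tween-20. HDAC-Glo I/II substrate-developer then added, 20 min room temperature, luminescence read. Inhibition relative to no-enzyme wells as 100%.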

SMILES | inhibition at 10 µM
Cc1cc(C)n([C@@H]2CCCC[C@H]2N2Cc3ccc(-c4nnc(C(F)F)o4)cc3C2=O)n1 [Example 61, 6-(5-(difluoromethyl)-1,3,4-oxadiazol-2-yl)-2-((1R,2R)-2-(3,5-dimethyl-1H-pyrazol-1-yl)cyclohexyl)isoindolin-1-one] | 99%
CC(C)(C)OC(=O)N[C@@H]1CCCC[C@H]1N1Cc2ncc(-c3nnc(C(F)F)o3)cc2C1=O [Example 62, tert-butyl ((1R,2R)-2-(3-(5-(difluoromethyl)-1,3,4-oxadiazol-2-yl)-5-oxo-5,7-dihydro-6H-pyrrolo[3,4-b]pyridin-6-yl)cyclohexyl)carbamate] | 99%
O=C(CC1CC1)N[C@@H]1CCCC[C@H]1N1Cc2ccc(-c3nnc(C(F)F)o3)cc2C1=O [Example 63, 2-cyclopropyl-N-((1R,2R)-2-(6-(5-(difluoromethyl)-1,3,4-oxadiazol-2-yl)-1-oxo-1,3-dihydro-2H-isoindol-2-yl)cyclohexyl)acetamide] | 99%
O=C(CCC(F)F)N[C@@H]1CCCC[C@H]1N1Cc2ccc(-c3nnc(C(F)F)o3)cc2C1=O [Example 64, N-((1R,2R)-2-(6-(5-(difluoromethyl)-1,3,4-oxadiazol-2-yl)-1-oxo-1,3-dihydro-2H-isoindol-2-yl)cyclohexyl)-4,4-difluorobutanamide] | 100%
O=C(CCC(F)(F)F)N[C@@H]1CCCC[C@H]1N1Cc2ccc(-c3nnc(C(F)F)o3)cc2C1=O [Example 65, N-((1R,2R)-2-(6-(5-(difluoromethyl)-1,3,4-oxadiazol-2-yl)-1-oxo-1,3-dihydro-2H-isoindol-2-yl)cyclohexyl)-4,4,4-trifluorobutanamide] | 100%
CC(F)C(=O)N[C@@H]1CCCC[C@H]1N1Cc2ccc(-c3nnc(C(F)F)o3)cc2C1=O (stereo partly drawn) [Example 66, N-((1R,2R)-2-(6-(5-(difluoromethyl)-1,3,4-oxadiazol-2-yl)-1-oxo-1,3-dihydro-2H-isoindol-2-yl)cyclohexyl)-2-fluoropropanamide] | 101%
CCC(F)(F)C(=O)N[C@@H]1CCCC[C@H]1N1Cc2ccc(-c3nnc(C(F)F)o3)cc2C1=O [Example 67, N-((1R,2R)-2-(6-(5-(difluoromethyl)-1,3,4-oxadiazol-2-yl)-1-oxo-1,3-dihydro-2H-isoindol-2-yl)cyclohexyl)-2,2-difluorobutanamide] | 100%
COC1(C(=O)N[C@@H]2CCCC[C@H]2N2Cc3ccc(-c4nnc(C(F)F)o4)cc3C2=O)CC1 [Example 68, N-((1R,2R)-2-(6-(5-(difluoromethyl)-1,3,4-oxadiazol-2-yl)-1-oxo-1,3-dihydro-2H-isoindol-2-yl)cyclohexyl)-1-methoxycyclopropanecarboxamide] | 101%
O=C(N[C@@H]1CCCC[C@H]1N1Cc2ccc(-c3nnc(C(F)F)o3)cc2C1=O)C1CC1F (stereo partly drawn) [Example 70, N-((1R,2R)-2-(6-(5-(difluoromethyl)-1,3,4-oxadiazol-2-yl)-1-oxo-1,3-dihydro-2H-isoindol-2-yl)cyclohexyl)-2-fluorocyclopropanecarboxamide] | 100%
O=C(N[C@@H]1CCCC[C@H]1N1Cc2ccc(-c3nnc(C(F)F)o3)cc2C1=O)C1CC1C(F)F (stereo partly drawn) [Example 71, 2-(difluoromethyl)-N-((1R,2R)-2-(6-(5-(difluoromethyl)-1,3,4-oxadiazol-2-yl)-1-oxo-1,3-dihydro-2H-isoindol-2-yl)cyclohexyl)cyclopropanecarboxamide (optical isomer)] | 97%
O=C(N[C@@H]1CCCC[C@H]1N1Cc2ccc(-c3nnc(C(F)F)o3)cc2C1=O)C1CC12CCC2 (stereo partly drawn) [Example 72, N-((1R,2R)-2-(6-(5-(difluoromethyl)-1,3,4-oxadiazol-2-yl)-1-oxo-1,3-dihydro-2H-isoindol-2-yl)cyclohexyl)spiro[2.3]hexane-1-carboxamide (optical isomer)] | 97%
CC1CC1C(=O)N[C@@H]1CCCC[C@H]1N1Cc2ccc(-c3nnc(C(F)F)o3)cc2C1=O (stereo partly drawn) [Example 73, N-((1R,2R)-2-(6-(5-(difluoromethyl)-1,3,4-oxadiazol-2-yl)-1-oxo-1,3-dihydro-2H-isoindol-2-yl)cyclohexyl)-2-methylcyclopropanecarboxamide] | 100%
O=C(N[C@@H]1CCCC[C@H]1N1Cc2ccc(-c3nnc(C(F)F)o3)cc2C1=O)C1CC1(F)F (stereo partly drawn) [Example 74, N-((1R,2R)-2-(6-(5-(difluoromethyl)-1,3,4-oxadiazol-2-yl)-1-oxo-1,3-dihydro-2H-isoindol-2-yl)cyclohexyl)-2,2-difluorocyclopropanecarboxamide (optical isomer)] | 102%
CC1(C)CC1C(=O)N[C@@H]1CCCC[C@H]1N1Cc2ccc(-c3nnc(C(F)F)o3)cc2C1=O (stereo partly drawn) [Example 75, N-((1R,2R)-2-(6-(5-(difluoromethyl)-1,3,4-oxadiazol-2-yl)-1-oxo-1,3-dihydro-2H-isoindol-2-yl)cyclohexyl)-2,2-dimethylcyclopropanecarboxamide] | 101%
O=C1c2cc(-c3nnc(C(F)F)o3)ccc2CN1[C@@H]1CCCC[C@H]1NC(=O)C1(O)CCC1 [Example 76, N-((1R,2R)-2-(6-(5-(difluoromethyl)-1,3,4-oxadiazol-2-yl)-1-oxo-1,3-dihydro-2H-isoindol-2-yl)cyclohexyl)-1-hydroxycyclobutanecarboxamide] | 101%
O=C1c2cc(-c3nnc(C(F)F)o3)ccc2CN1[C@@H]1CCCC[C@H]1NC(=O)C1(F)CCC1 [Example 77, N-((1R,2R)-2-(6-(5-(difluoromethyl)-1,3,4-oxadiazol-2-yl)-1-oxo-1,3-dihydro-2H-isoindol-2-yl)cyclohexyl)-1-fluorocyclobutanecarboxamide] | 100%
N#CC1(C(=O)N[C@@H]2CCCC[C@H]2N2Cc3ccc(-c4nnc(C(F)F)o4)cc3C2=O)CCC1 [Example 78, 1-cyano-N-((1R,2R)-2-(6-(5-(difluoromethyl)-1,3,4-oxadiazol-2-yl)-1-oxo-1,3-dihydro-2H-isoindol-2-yl)cyclohexyl)cyclobutanecarboxamide] | 100%
O=C(N[C@@H]1CCCC[C@H]1N1Cc2ccc(-c3nnc(C(F)F)o3)cc2C1=O)C1CC2(CCC2)C1 [Example 79, N-((1R,2R)-2-(6-(5-(difluoromethyl)-1,3,4-oxadiazol-2-yl)-1-oxo-1,3-dihydro-2H-isoindol-2-yl)cyclohexyl)spiro[3.3]heptane-2-carboxamide] | 97%
O=C1c2cc(-c3nnc(C(F)F)o3)ccc2CN1[C@@H]1CCCC[C@H]1NC(=O)C12CC(C(F)(F)F)(C1)C2 [Example 80, N-((1R,2R)-2-(6-(5-(difluoromethyl)-1,3,4-oxadiazol-2-yl)-1-oxo-1,3-dihydro-2H-isoindol-2-yl)cyclohexyl)-3-(trifluoromethyl)bicyclo[1.1.1]pentane-1-carboxamide] | 101%
CC(C)(O)C(=O)N[C@@H]1CCCC[C@H]1N1Cc2ccc(-c3nnc(C(F)F)o3)cc2C1=O [Example 81, N-((1R,2R)-2-(6-(5-(difluoromethyl)-1,3,4-oxadiazol-2-yl)-1-oxo-1,3-dihydro-2H-isoindol-2-yl)cyclohexyl)-2-hydroxy-2-methylpropanamide] | 101%
CC(C)(C#N)C(=O)N[C@@H]1CCCC[C@H]1N1Cc2ccc(-c3nnc(C(F)F)o3)cc2C1=O [Example 82, 2-cyano-N-((1R,2R)-2-(6-(5-(difluoromethyl)-1,3,4-oxadiazol-2-yl)-1-oxo-1,3-dihydro-2H-isoindol-2-yl)cyclohexyl)-2-methylpropanamide] | 100%
CC(C)(O)CC(=O)N[C@@H]1CCCC[C@H]1N1Cc2ccc(-c3nnc(C(F)F)o3)cc2C1=O [Example 83, N-((1R,2R)-2-(6-(5-(difluoromethyl)-1,3,4-oxadiazol-2-yl)-1-oxo-1,3-dihydro-2H-isoindol-2-yl)cyclohexyl)-3-hydroxy-3-methylbutanamide] | 102%

From US10435399B2, “HDAC6 inhibitory heterocyclic compound” (TAKEDA PHARMACEUTICAL COMPANY LIMITED, priority 2017, dated 2019)
